Experimental data taken from ChEMBL document CHEMBL1201862, “PubChem BioAssay data set” (2004).
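The compound was tested at five concentrations on cells cultured in 96-well plates, with a 48-hour exposure period. GI50 = concentration required for 50% inhibition of growth.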 Activity calls are given as the source filed them. Rule as the data show it: active = GI50 up to about 1.1 µM and inactive = higher. Where a SMILES comes first, the peptide text is derived from it. The star is where a group is joined. Boc = CC(C)(C)OC(=O)*; nBu = CCCC*

Legend:
Assay in all cases: NCI-60 cell line screen, 48 h
RPMI-8226 = system: RPMI-8226
SK-OV-3 = system: SK-OV-3
HOP-92 = system: HOP-92
OVCAR-5 = system: OVCAR-5
UACC-257 = system: UACC-257
MCF7 = system: MCF7
HOP-62 = system: HOP-62
NCI-H226 = system: NCI-H226
SK-MEL-5 = system: SK-MEL-5
UACC-62 = system: UACC-62
EKVX = system: EKVX
SF-295 = system: SF-295
SW-620 = system: SW-620
SK-MEL-2 = system: SK-MEL-2
LOX IMVI = system: LOX IMVI
HT-29 = system: HT-29
TK-10 = system: TK-10
HCC 2998 = system: HCC 2998
KM12 = system: KM12
K562 = system: K562

Structure (SMILES) | GI50 (RPMI-8226) | GI50 (SK-OV-3) | GI50 (HOP-92) | GI50 (OVCAR-5) | GI50 (UACC-257) | GI50 (MCF7) | GI50 (HOP-62) | GI50 (NCI-H226) | GI50 (SK-MEL-5) | GI50 (UACC-62) | GI50 (EKVX) | GI50 (SF-295) | GI50 (SW-620) | GI50 (SK-MEL-2) | GI50 (LOX IMVI) | GI50 (HT-29) | GI50 (TK-10) | GI50 (HCC 2998) | GI50 (KM12) | GI50 (K562)
CC(C)(C)c1ccc(OCCOc2ccc(C(C)(C)C)cc2NC=O)c(NC=O)c1 | 2.32 µM (inactive) | 20.9 µM (inactive) | 7 µM (inactive) | 22.4 µM (inactive) | 5.85 µM (inactive) | 4.7 µM (inactive) | 6.92 µM (inactive) | 10.8 µM (inactive) | 4.13 µM (inactive) | 12.5 µM (inactive) | 10.5 µM (inactive) | 5.5 µM (inactive) | 4.39 µM (inactive) | 14.9 µM (inactive) | 4.5 µM (inactive) | 3.08 µM (inactive) | 15.1 µM (inactive) | 5.12 µM (inactive) | 3.77 µM (inactive) | 4.14 µM (inactive)
NC(=O)Cc1nc2c(N)ncnc2n1C1OC(CO)C(O)C1O (stereo not given) | > 100 µM (inactive) | > 100 µM (inactive) | > 100 µM (inactive) | – | > 100 µM (inactive) | > 100 µM (inactive) | > 100 µM (inactive) | > 100 µM (inactive) | > 100 µM (inactive) | > 100 µM (inactive) | > 100 µM (inactive) | > 100 µM (inactive) | > 100 µM (inactive) | > 100 µM (inactive) | > 100 µM (inactive) | > 100 µM (inactive) | > 100 µM (inactive) | > 100 µM (inactive) | > 100 µM (inactive) | > 100 µM (inactive)
CC(C)(C)OC(=O)N1CCCC1C(=O)NC(c1ccccc1)c1ccccc1 (stereo not given) | > 100 µM (inactive) | > 100 µM (inactive) | > 100 µM (inactive) | > 100 µM (inactive) | > 100 µM (inactive) | > 100 µM (inactive) | > 100 µM (inactive) | > 100 µM (inactive) | > 100 µM (inactive) | > 100 µM (inactive) | > 100 µM (inactive) | > 100 µM (inactive) | > 100 µM (inactive) | > 100 µM (inactive) | > 100 µM (inactive) | > 100 µM (inactive) | > 100 µM (inactive) | > 100 µM (inactive) | > 100 µM (inactive) | > 100 µM (inactive)
CC(=O)Oc1ccccc1/C=C/C(=O)/C=C/c1ccccc1OC(C)=O | 0.308 µM (active) | 4.15 µM (inactive) | 4.11 µM (inactive) | 2.21 µM (inactive) | 1.36 µM (inactive) | 0.959 µM (active) | 2.44 µM (inactive) | 1.81 µM (inactive) | 1.84 µM (inactive) | 1.64 µM (inactive) | 1.79 µM (inactive) | 2.26 µM (inactive) | 0.447 µM (active) | 3.79 µM (inactive) | 0.64 µM (active) | 1.94 µM (inactive) | 3.39 µM (inactive) | 1.88 µM (inactive) | 1.09 µM (active) | 0.429 µM (active)
CC(=O)/C(=C/N1CCNC1=S)C(=O)Nc1ccccc1C | > 100 µM (inactive) | > 100 µM (inactive) | > 100 µM (inactive) | > 100 µM (inactive) | > 100 µM (inactive) | > 100 µM (inactive) | > 100 µM (inactive) | > 100 µM (inactive) | > 100 µM (inactive) | > 100 µM (inactive) | > 100 µM (inactive) | > 100 µM (inactive) | > 100 µM (inactive) | > 100 µM (inactive) | > 100 µM (inactive) | > 100 µM (inactive) | > 100 µM (inactive) | > 100 µM (inactive) | > 100 µM (inactive) | > 100 µM (inactive)
C/C(=C1\C(=O)C(c2ccccc2)N(c2ccccc2)C1=O)c1ccc(Cl)cc1 (stereo not given) | 15.4 µM (inactive) | 16.7 µM (inactive) | 3.17 µM (inactive) | – | 16.9 µM (inactive) | 35.1 µM (inactive) | 23.1 µM (inactive) | 18.4 µM (inactive) | 14.5 µM (inactive) | 16.3 µM (inactive) | 30.8 µM (inactive) | 20 µM (inactive) | 22.8 µM (inactive) | 20.1 µM (inactive) | 14.9 µM (inactive) | 17.4 µM (inactive) | 22 µM (inactive) | 36.6 µM (inactive) | 22.2 µM (inactive) | 30.1 µM (inactive)
Cc1ccc2[nH]c3c(C)c4cc[n+](C)cc4c(C)c3c2c1 | 16.1 µM (inactive) | 2.51 µM (inactive) | 4.32 µM (inactive) | 5 µM (inactive) | 3.71 µM (inactive) | 1.95 µM (inactive) | 0.774 µM (active) | 0.74 µM (active) | 1.65 µM (inactive) | 2.68 µM (inactive) | 1.27 µM (inactive) | 0.462 µM (active) | 0.374 µM (active) | 1.7 µM (inactive) | 5 µM (inactive) | 3.33 µM (inactive) | 5.42 µM (inactive) | 2.06 µM (inactive) | 0.67 µM (active) | 1.41 µM (inactive)
CCCSCC(P(=O)(O)O)P(=O)(O)O.NC1CCCCC1 | > 100 µM (inactive) | > 100 µM (inactive) | > 100 µM (inactive) | > 100 µM (inactive) | > 100 µM (inactive) | > 100 µM (inactive) | > 100 µM (inactive) | > 100 µM (inactive) | > 100 µM (inactive) | > 100 µM (inactive) | > 100 µM (inactive) | > 100 µM (inactive) | > 100 µM (inactive) | > 100 µM (inactive) | > 100 µM (inactive) | > 100 µM (inactive) | – | > 100 µM (inactive) | 7.46 µM (inactive) | > 100 µM (inactive)
COC1/C=C\C=C(/C)C(=O)NC2=CC(=O)C=C(C2=O)C(OC)C(C)CC(OC)C(OC)C(C)/C=C(/C)C1OC(N)=O (stereo not given) | 0.807 µM (active) | 14.6 µM (inactive) | 2.04 µM (inactive) | 15.3 µM (inactive) | 1.37 µM (inactive) | 1.28 µM (inactive) | 2.92 µM (inactive) | 21.8 µM (inactive) | 4.35 µM (inactive) | 0.76 µM (active) | 1.97 µM (inactive) | 20.6 µM (inactive) | 0.146 µM (active) | 2.31 µM (inactive) | 3.19 µM (inactive) | 0.608 µM (active) | – | 2.66 µM (inactive) | 5.7 µM (inactive) | 0.15 µM (active)
COc1ccc(C2C3CCCC(C3=O)C(c3ccc(OC)cc3)N2N=O)cc1 (stereo not given) | 20.7 µM (inactive) | 37.4 µM (inactive) | 41.7 µM (inactive) | > 55.6 µM (inactive) | 27.9 µM (inactive) | 18.8 µM (inactive) | 38.5 µM (inactive) | 23.3 µM (inactive) | 17.7 µM (inactive) | 28.6 µM (inactive) | 56.9 µM (inactive) | 20.7 µM (inactive) | 42.9 µM (inactive) | 20.5 µM (inactive) | 18 µM (inactive) | 21.4 µM (inactive) | – | 28.9 µM (inactive) | 29.6 µM (inactive) | 23.9 µM (inactive)
CC[C@@]1(N(C)C)C(=O)OCc2c1cc1n(c2=O)Cc2cc3ccccc3nc2-1 | 31.3 µM (inactive) | 18.7 µM (inactive) | 19.1 µM (inactive) | > 100 µM (inactive) | > 100 µM (inactive) | 32.1 µM (inactive) | 16.9 µM (inactive) | 22.4 µM (inactive) | 69.3 µM (inactive) | 22.1 µM (inactive) | 45.9 µM (inactive) | 16.1 µM (inactive) | 32.1 µM (inactive) | 26.4 µM (inactive) | 17.1 µM (inactive) | – | 48.2 µM (inactive) | 97.7 µM (inactive) | > 100 µM (inactive) | > 100 µM (inactive)
Cc1ccc(SCC(CF)OC(C)n2cnc3c(O)nc(N)nc32)cc1 (stereo not given) | > 100 µM (inactive) | > 100 µM (inactive) | > 100 µM (inactive) | > 100 µM (inactive) | 48.4 µM (inactive) | 34.9 µM (inactive) | > 100 µM (inactive) | > 100 µM (inactive) | 18.1 µM (inactive) | > 100 µM (inactive) | – | > 100 µM (inactive) | > 100 µM (inactive) | > 100 µM (inactive) | > 100 µM (inactive) | > 100 µM (inactive) | > 100 µM (inactive) | > 100 µM (inactive) | > 100 µM (inactive) | –
CCCCOc1ccc(CC(NC(=O)OC(C)(C)C)C(=O)NC(C)C(=O)NC(Cc2ccccc2)C(=O)NCC(N)=O)cc1 (stereo not given) (Boc-Y(nBu)AFG-NH2; configuration not given here) | 32.6 µM (inactive) | > 100 µM (inactive) | 61.4 µM (inactive) | > 100 µM (inactive) | > 100 µM (inactive) | 41.1 µM (inactive) | > 100 µM (inactive) | > 100 µM (inactive) | > 100 µM (inactive) | > 100 µM (inactive) | – | > 100 µM (inactive) | > 100 µM (inactive) | 18.7 µM (inactive) | 65 µM (inactive) | > 100 µM (inactive) | > 100 µM (inactive) | > 100 µM (inactive) | > 100 µM (inactive) | > 100 µM (inactive)
COc1ccc2[nH]cc(/C=C(/C)c3ccncc3)c2c1 | 5.89 µM (inactive) | 4.41 µM (inactive) | 6.47 µM (inactive) | 33.1 µM (inactive) | 7.48 µM (inactive) | 3.47 µM (inactive) | 7.64 µM (inactive) | 22.6 µM (inactive) | 3.1 µM (inactive) | 5.01 µM (inactive) | 15.6 µM (inactive) | 6.35 µM (inactive) | 3.83 µM (inactive) | 5.38 µM (inactive) | 6.28 µM (inactive) | 3.25 µM (inactive) | – | 8.24 µM (inactive) | 2.44 µM (inactive) | 2.98 µM (inactive)
